For this assay, the target named is T1, maize enzyme cytokinin oxidase/dehydrogenase 1 (ZmCKX1) (Zea mays, UniProt Q9T0N8).
T1 construct: made in house; host or cells: Yarrowia lipolytica
In words: ZmCKX1 inhibition, PMS/MTT assay. Format: biochemical. To be noted: 10 µM N6-isopentenyladenine (iP) as substrate, pH 7.4, 30 min at 37 °C; average of at least two measurements; read-out: IC50 (µM) ZmCKX1. The procedure:
The IC50 (concentration of a substance that causes 50% inhibition of the enzyme activity) was measured by PMS/MTT assay [phenazine methosulphate/3-(4,5-dimethylthiazol-2-yl)-2,5-diphenyltetrazolium bromide]. The assay was performed in 96-well microtiter plates. Each well contained a reaction mixture with a final concentration of: 0.1 M KH2PO4, pH 7.4, 1 mM MTT, 0.2 mM PMS, tested substance in a concentration range of 0.1 nM - 1 µM and 10 µM N^6-isopentenyladenine (iP) as a substrate. To this reaction mixture 100 µL of medium containing the active enzyme ZmCKX1 was added. The enzyme was produced by the yeast Yarrowia lipolytica and isolated according to the protocol (Kopečný D. et al., 2005, […] 87:1011-1022). The plates were incubated for 30 min at 37 °C and the enzymatic reaction was stopped by the addition of 25 µL of 35% acetic acid. Then, the absorbance at 578 nm was measured on a spectrophotometer, and the absorbance of the sample without the substrate was substracted as a reference value. The IC50 value was determined from the concentration-dependent curves in GraphPad Prism software. The values shown in Table 1 are the average of at least two measurements each performed in three repetitions. […] This also applies to 3,5-DCl-Ph-U derivatives.
For orientation: Tetrazolium dyes change colour on reduction, which living cells bring about.

Each structure is given as a SMILES string.

One may read the IC50 as the concentration needed to halve the response being measured.

T1 sequence (Q9T0N8 19-534): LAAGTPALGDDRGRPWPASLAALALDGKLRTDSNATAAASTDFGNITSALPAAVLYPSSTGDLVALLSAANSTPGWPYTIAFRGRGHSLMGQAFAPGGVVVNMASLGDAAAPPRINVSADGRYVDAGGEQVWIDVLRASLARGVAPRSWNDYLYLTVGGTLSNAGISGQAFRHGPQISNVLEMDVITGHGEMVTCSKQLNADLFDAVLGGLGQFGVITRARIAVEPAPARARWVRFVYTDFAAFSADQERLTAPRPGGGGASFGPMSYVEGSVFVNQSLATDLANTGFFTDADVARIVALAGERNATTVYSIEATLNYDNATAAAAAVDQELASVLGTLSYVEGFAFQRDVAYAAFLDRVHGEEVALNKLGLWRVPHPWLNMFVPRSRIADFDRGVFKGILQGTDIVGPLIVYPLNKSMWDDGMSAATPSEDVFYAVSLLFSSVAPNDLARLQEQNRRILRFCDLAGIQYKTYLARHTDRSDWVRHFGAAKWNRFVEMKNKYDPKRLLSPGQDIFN

Regarding `O=C(Nc1ccnc(F)c1)Nc1ccccc1CO` [Compound 1, 1-(2-fluoropyridin-4-yl)-3-(2-hydroxymethylphenyl)urea], the 50% inhibitory concentration (IC50) came to 2.5 µM.

With `O=C(Nc1cc(F)nc(F)c1)Nc1ccccc1CO` [Compound 3, 1-(2,6-difluoropyridin-4-yl)-3-(2-hydroxymethylphenyl)urea], the IC50 was determined as 0.82 µM.

Consider `O=C(Nc1ccnc(Cl)c1)Nc1ccccc1CO` [Compound 4, 1-(2-chloropyridin-4-yl)-3-(2-hydroxymethylphenyl)urea], for which the half-inhibitory concentration (IC50) came out at 1.6 µM.

Regarding `O=C(Nc1cc(Cl)nc(Cl)c1)Nc1ccccc1CO` [Compound 5, 1-(2,6-dichloropyridin-4-yl)-3-(2-hydroxymethylphenyl)urea], the IC50 is 0.7 µM.

In the case of `COc1cc(NC(=O)Nc2ccccc2CO)ccn1` [Compound 7, 1-(2-methoxypyridin-4-yl)-3-(2-hydroxymethylphenyl)urea], the IC50 is 1.1 µM.

In the case of `O=C(Nc1ccnc(F)c1)Nc1ccccc1CCO` [Compound 9, 1-(2-fluoropyridin-4-yl)-3-[2-(2-hydroxyethyl)phenyl]urea], the IC50 was found to be 1.6 µM.

Turning to `O=C(Nc1cc(F)nc(F)c1)Nc1ccccc1CCO` [Compound 10, 1-(2,6-difluoropyridin-4-yl)-3-[2-(2-hydroxyethyl)phenyl]urea], the IC50 was found to be 0.72 µM.

As to `O=C(Nc1ccnc(Cl)c1)Nc1ccccc1CCO` [Compound 12, 1-(2-Chloropyridin-4-yl)-3-[2-(2-hydroxyethyl)phenyl]urea], the IC50 came out at 1.3 µM.

With `O=C(Nc1cc(Cl)nc(Cl)c1)Nc1ccccc1CCO` [Compound 13, 1-(2,6-Dichloropyridin-4-yl)-3-[2-(2-hydroxyethyl)phenyl]urea], the IC50 turned out to be 0.43 µM.

Regarding `O=C(Nc1cc(Cl)nc(Cl)c1)Nc1cc(F)ccc1CCO` [Compound 14, 1-[5-fluoro-2-(2-hydroxyethyl)phenyl]-3-(2,6-dichloropyridin-4-yl)urea], the IC50 worked out at 0.056 µM.

`COc1cc(NC(=O)Nc2cc(F)ccc2CCO)ccn1` [Compound 15, 1-[5-fluoro-2-(2-hydroxyethyl)phenyl]-3-(2-methoxypyridin-4-yl)urea]: the IC50 amounted to 0.15 µM.

As to `O=C(Nc1cc(F)cc(F)c1)Nc1ccccc1CO` [Compound 17, 1-(3,5-difluorophenyl)-3-(2-hydroxymethylphenyl)urea], the IC50 turned out to be 0.65 µM.

Regarding `O=C(Nc1cc(Cl)cc(Cl)c1)Nc1ccccc1CO` [Compound 18, 1-(3,5-Dichlorophenyl)-3-(2-hydroxymethylphenyl)urea], the IC50 came to 0.4 µM.

Consider `O=C(Nc1cc(Br)cc(Br)c1)Nc1ccccc1CO` [Compound 19, 1-(3,5-dibromophenyl)-3-(2-hydroxymethylphenyl)urea], for which the IC50 worked out at 0.33 µM.

Consider `O=C(Nc1cc(Cl)cc(Cl)c1)Nc1cccc(Cl)c1CO` [Compound 20, 1-(3-Chloro-2-hydroxymethylphenyl)-3-(3,5-dichlorophenyl)urea], for which the IC50 worked out at 0.27 µM.

`O=C(Nc1cc(Cl)cc(Cl)c1)Nc1cc(Cl)cc(Cl)c1CO` [Compound 21, 1-(3,5-Dichloro-2-hydroxymethylphenyl)-3-(3,5-dichlorophenyl)urea]: the IC50 came out at 0.02 µM.

As to `COc1cc(NCCO)cc(NC(=O)Nc2ccccc2CO)c1` [Compound 23, 1-[3-(2-hydroxyethylamino)-5-methoxyphenyl]-3-(2-hydroxymethylphenyl)urea], the IC50 was 0.2 µM.

In the case of `COc1cc(NCCN)cc(NC(=O)Nc2ccccc2CO)c1` [Compound 24, 1-[3-(2-aminoethylamino)-5-methoxyphenyl]-3-(2-hydroxymethylphenyl)urea], the IC50 was 0.18 µM.

Regarding `CSc1cccc(NC(=O)Nc2ccccc2CO)c1` [Compound 26, 1-(2-hydroxymethylphenyl)-3-(3-methylsulphanylphenyl)urea], the IC50 was 1.5 µM.

Take `O=C(Nc1cccc(OC(F)(F)F)c1)Nc1ccccc1CO` [Compound 28, 1-(2-Hydroxymethylphenyl)-3-(3-trifluoromethoxyphenyl)urea]: the IC50 was 1.3 µM.

The record behind these values is EP4121415B1, “INHIBITORS OF CYTOKININ OXIDASE DERIVED FROM 1-[2-(HYDROXYALKYL)PHENYL]-3-YLUREA, USE THEREOF AND PREPARATIONS CONTAINING THESE DERIVATIVES” (Univerzita Palackého v Olomouci, priority 2020, dated 2021).
